According to ChEMBL document CHEMBL2396652 (Bioorg Med Chem Lett, 2013):
Activity calls are given as the source filed them. No cut-off for these calls is given here.

Legend:
Homo sapiens [1] = species: Homo sapiens; assay: Selectivity ratio of Ki for delta opioid receptor (unknown origin) to Ki for mu opioid receptor (unknown origin)
Homo sapiens [2] = species: Homo sapiens; assay: Selectivity ratio of Ki for kappa opioid receptor (unknown origin) to Ki for mu opioid receptor (unknown origin)
Mu-type opioid receptor [3] = molecular target: T1, Mu-type opioid receptor (Homo sapiens, UniProt P35372); assay: Agonist activity at mu opioid receptor (unknown origin) expressed CHO cells assessed as stimulation of [35S]-GTP[gammaS] binding relative to DAMGO; format: cell-based
T1 sequence (P35372 whole entry): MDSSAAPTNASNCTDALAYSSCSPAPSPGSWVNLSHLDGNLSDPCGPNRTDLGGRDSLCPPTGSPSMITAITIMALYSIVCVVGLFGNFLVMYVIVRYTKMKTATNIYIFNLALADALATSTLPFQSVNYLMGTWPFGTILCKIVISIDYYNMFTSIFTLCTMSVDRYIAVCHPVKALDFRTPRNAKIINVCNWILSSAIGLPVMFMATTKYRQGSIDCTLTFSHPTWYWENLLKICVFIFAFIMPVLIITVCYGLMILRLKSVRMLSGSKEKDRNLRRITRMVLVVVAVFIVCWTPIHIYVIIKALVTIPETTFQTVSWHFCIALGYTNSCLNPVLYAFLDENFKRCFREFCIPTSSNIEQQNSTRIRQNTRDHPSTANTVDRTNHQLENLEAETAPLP

Mu-type opioid receptor [4] = molecular target: T1, Mu-type opioid receptor; assay: Agonist activity at mu opioid receptor (unknown origin) expressed CHO cells assessed as stimulation of [35S]-GTP[gammaS] binding; format: cell-based
Mu-type opioid receptor [5] = molecular target: T1, Mu-type opioid receptor; assay: Agonist activity at mu opioid receptor (unknown origin) expressed CHO cells assessed as stimulation of [35S]-GTP[gammaS] binding at 10 uM relative to DAMGO; format: cell-based
Mu-type opioid receptor [6] = molecular target: T1, Mu-type opioid receptor; assay: Antagonist activity at mu opioid receptor (unknown origin) expressed CHO cells assessed as inhibition of [35S]-GTP[gammaS] binding; format: cell-based

Structure (SMILES) | Ratio Ki (Homo sapiens [1]) | Ratio Ki (Homo sapiens [2]) | Emax (Mu-type opioid receptor [3]) | EC50 (Mu-type opioid receptor [4]) | Emax (Mu-type opioid receptor [5]) | inhibition (Mu-type opioid receptor [6])
O=C(N[C@@]12CCC(=O)[C@@H]3Oc4c(O)ccc5c4[C@@]31CCN(CC1CC1)[C@@H]2C5)c1ccncc1 | 13 | 0.4 | 7.74% | 1.67 nM | – | –
O=C(N[C@@]12CCC(=O)[C@@H]3Oc4c(O)ccc5c4[C@@]31CCN(CC1CC1)[C@@H]2C5)c1cccnc1 | 53 | 0.21 | – | – | 5.09% | Active
COc1cccc2c1[C@]13CCN(CC4CC4)[C@H](C2)[C@]1(OC)CCC(=O)C3 | 40 | 45 | – | – | – | –
O=C(N[C@@]12CCC(=O)[C@@H]3Oc4c(O)ccc5c4[C@@]31CCN(CC1CC1)[C@@H]2C5)c1ccc2ccccc2c1 | 1.7 | 0.05 | 16.5% | 11.1 nM | – | –
O=C(N[C@@]12CCC(=O)[C@@H]3Oc4c(O)ccc5c4[C@@]31CCN(CC1CC1)[C@@H]2C5)c1cnc2ccccc2c1 | 1.3 | 0.12 | 15.8% | 2.81 nM | – | –
O=C(N[C@@]12CCC(=O)[C@@H]3Oc4c(O)ccc5c4[C@@]31CCN(CC1CC1)[C@@H]2C5)c1ccccn1 | 63 | 0.24 | – | – | 0.9% | Active
O=C(N[C@@]12CCC(=O)[C@@H]3Oc4c(O)ccc5c4[C@@]31CCN(CC1CC1)[C@@H]2C5)c1cc2ccccc2cn1 | 7.2 | 0.07 | – | – | 2.84% | Active
O=C(N[C@@]12CCC(=O)[C@@H]3Oc4c(O)ccc5c4[C@@]31CCN(CC1CC1)[C@@H]2C5)c1ccccc1 | 13 | 0.03 | 5.79% | 7.2 nM | – | –
O=C(N[C@@]12CCC(=O)[C@@H]3Oc4c(O)ccc5c4[C@@]31CCN(CC1CC1)[C@@H]2C5)c1ccc2ccccc2n1 | 1.7 | 0.03 | 34.4% | 38.8 nM | – | –
